Source: patent US20260325540A1 (priority 2023, published 2026)

Molecular target: HCoV-229E 3CL protease (Human coronavirus 229E, UniProt P0C6U2)
Test: FRET based protease assay, HCoV-229E 3CL
Format: biochemical
Details: 229E IC50, 6 nM H229E-CoV Chis-3CLpro, 6 μM peptide 1 substrate, 25° C., 1.5 hrs, pH 7.5

HCoV-229E 3CL protease, sequence (P0C6U2 2966-3267): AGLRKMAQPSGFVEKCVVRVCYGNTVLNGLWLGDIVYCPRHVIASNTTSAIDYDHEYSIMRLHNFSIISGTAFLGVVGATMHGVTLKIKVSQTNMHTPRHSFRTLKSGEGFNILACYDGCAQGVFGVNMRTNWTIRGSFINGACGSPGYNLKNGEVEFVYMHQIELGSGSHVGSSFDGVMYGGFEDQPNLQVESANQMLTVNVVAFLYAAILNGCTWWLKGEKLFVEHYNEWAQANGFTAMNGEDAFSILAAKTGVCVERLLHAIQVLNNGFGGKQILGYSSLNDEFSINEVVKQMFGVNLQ

For `CC(C)C[C@@H]1NC(=O)[C@@H](NC(=O)C(C)(C)C)CCCC[C@H]2CNC(=O)[C@H]2C[C@@H](C#N)NC1=O` [Example 44], the IC50 was under 100 nM.
`CC(C)C[C@@H]1NC(=O)[C@@H](Cc2ccccc2)CCC[C@H]2CNC(=O)[C@@H]2C[C@@H](C=O)NC1=O` [Example 17] gave an IC50 of 100 to 1000 nM.
For `CC1(C)[C@@H]2[C@H]3C(=O)N[C@H](C#N)C[C@@H]4C(=O)NCC[C@@H]4CCCC[C@H](NC(=O)OC4CCCC4)C(=O)N3C[C@@H]21` [Example 124], the IC50 was under 100 nM.
Work on `CC1(C)[C@@H]2[C@H]3C(=O)N[C@H](C#N)C[C@@H]4C(=O)NC[C@@H]4CCCC[C@H](NC(=O)c4cccc(Cl)c4Cl)C(=O)N3C[C@@H]21` [Example 134] yielded an IC50 of under 100 nM.
`CC(C)(C)C(=O)N[C@H]1CCCC[C@H]2CNC(=O)[C@H]2C[C@@H](C#N)NC(=O)[C@@H]2CCCCN2C1=O` [Example 71] showed an IC50 of 1000 to 20000 nM.
Work on `CC1(C)[C@@H]2[C@H]3C(=O)N[C@H](C#N)C[C@@H]4C(=O)NC[C@@H]4CCCC[C@H](NC(=O)C4CCCCC4)C(=O)N3C[C@@H]21` [Example 77] yielded an IC50 of under 100 nM.
For `CC(C)C[C@@H]1NC(=O)[C@@H](Cc2ccccc2)CCCC[C@@H]2CNC(=O)[C@@H]2C[C@@H](C=O)NC1=O` [Example 35], the IC50 was 1000 to 20000 nM.
`CC(C)C[C@@H]1NC(=O)CCCCC[C@H]2CNC(=O)[C@@H]2C[C@@H](C=O)NC1=O` [Example 32] was tested, and the IC50 was under 100 nM.
With `CC(C)C[C@@H]1NC(=O)[C@@H](Cc2ccccc2)CCCC[C@H]2CNC(=O)[C@@H]2C[C@@H](C=O)NC1=O` [Example 37] the IC50 was under 100 nM.
`CCO[C@@H]1C[C@H]2C(=O)N[C@H](C#N)C[C@@H]3C(=O)NC[C@@H]3CCCC[C@H](NC(=O)OC(C)(C)C)C(=O)N2C1` [Example 144] showed an IC50 of 100 to 1000 nM.
`CC(C)C[C@@H]1NC(=O)C(OC2CCCCC2)CCC[C@H]2CNC(=O)[C@@H]2C[C@@H](C#N)NC1=O` (some centres unmarked) [Example 23] was tested, and the IC50 was over 20000 nM.
For `CC(C)C[C@@H]1NC(=O)[C@@H](NC(=O)OC(C)(C)C)CCCC[C@H]2CNC(=O)[C@H]2C[C@@H](C#N)NC1=O` [Example 56], the IC50 was under 100 nM.
`CC1(C)[C@@H]2[C@H]3C(=O)N[C@H](C#N)C[C@@H]4C(=O)NC[C@@H]4CCCC[C@H](NC(=O)c4ccc(F)cc4)C(=O)N3C[C@@H]21` [Example 82] showed an IC50 of under 100 nM.
For `N#C[C@@H]1C[C@@H]2C(=O)NC[C@@H]2CCCC[C@H](NS(=O)(=O)c2ccc(F)cc2F)C(=O)N2C[C@@H]3CCC[C@@H]3[C@H]2C(=O)N1` [Example 155], the IC50 was under 100 nM.
`CC(C)C[C@@H]1NC(=O)[C@@H](Cc2ccccc2)CCC[C@H]2CNC(=O)[C@@H]2C[C@@H](C=O)NC1=O` [Example 10] showed an IC50 of 1000 to 20000 nM.
Compound `N#C[C@@H]1C[C@@H]2C(=O)NC[C@@H]2CCCC[C@H](NC(=O)C2(C(F)(F)F)CC2)C(=O)N2CCC3(CC3)C[C@H]2C(=O)N1` [Example 151] has an IC50 of under 100 nM.
Compound `CC(C)C[C@@H]1NC(=O)[C@H](Cc2ccccc2)CCC[C@H]2CNC(=O)[C@@H]2C[C@@H](C=O)NC1=O` [Example 21] has an IC50 of under 100 nM.
`CC(C)(C)CC(=O)N[C@H]1CCCC[C@H]2CCNC(=O)[C@H]2C[C@@H](C#N)NC(=O)[C@@H]2[C@H]3CCC[C@H]3CN2C1=O` [Example 95] showed an IC50 of under 100 nM.
In the case of `CC(C)(C)OC(=O)N[C@H]1CCCC[C@H]2CNC(=O)[C@H]2C[C@@H](C#N)NC(=O)[C@@H]2[C@@H]3[C@H](CN2C1=O)C3(C)C` [Example 72], the IC50 is reported as under 100 nM.
For `CC(C)(C)C[C@@H]1NC(=O)[C@@H](NC(=O)c2ccc(Cl)c(Cl)c2)CCCC[C@H]2CNC(=O)[C@H]2C[C@@H](C#N)NC1=O` [Example 136], the IC50 was under 100 nM.
`Cc1cc(C(=O)N[C@H]2CCCC[C@H]3CNC(=O)[C@H]3C[C@@H](C#N)NC(=O)[C@@H]3[C@@H]4[C@H](CN3C2=O)C4(C)C)no1` [Example 122] showed an IC50 of under 100 nM.
In the case of `CO[C@@H]1C[C@H]2C(=O)N[C@H](C#N)C[C@@H]3C(=O)NC[C@@H]3CCCC[C@H](NC(=O)OC(C)(C)C)C(=O)N2C1` [Example 147], the IC50 is reported as 100 to 1000 nM.
Compound `CC(C)(C)OC(=O)N[C@H]1CCCC[C@H]2CNC(=O)[C@H]2C[C@@H](C#N)NC(=O)[C@@H]2[C@H]3CCC[C@H]3CN2C1=O` [Example 79] has an IC50 of under 100 nM.
`CC(C)C[C@@H]1NC(=O)[C@@H](Cc2ccc(F)cc2)CCCC[C@@H]2CNC(=O)[C@@H]2C[C@@H](C#N)NC1=O` [Example 42] gave an IC50 of 100 to 1000 nM.
Compound `CC(C)C[C@@H]1NC(=O)[C@@H](NC(=O)C(C)(C)C)CCCC[C@H]2CNC(=O)[C@@H]2C[C@@H](C#N)NC1=O` [Example 54] has an IC50 of 1000 to 20000 nM.
Compound `CC(C)C[C@@H]1NC(=O)CCCCC[C@H]2CNC(=O)[C@H]2C[C@@H](C=O)NC1=O` [Example 30] has an IC50 of under 100 nM.
`CC(C)(C)OC(=O)N[C@H]1CCCC[C@H]2CCNC(=O)C2C[C@@H](C#N)NC(=O)[C@@H]2[C@H]3CCC[C@H]3CN2C1=O` (some centres unmarked) [Example 98] was tested, and the IC50 was under 100 nM.
With `CC1(C)[C@@H]2[C@H]3C(=O)N[C@H](C#N)C[C@@H]4C(=O)NC[C@@H]4CCCC[C@H](NC(=O)C4CCOCC4)C(=O)N3C[C@@H]21` [Example 85] the IC50 was under 100 nM.
In the case of `CC(C)C[C@@H]1NC(=O)[C@@H](OC(C)(C)C)CCC[C@H]2CNC(=O)[C@@H]2C[C@@H](C#N)NC1=O` [Example 29], the IC50 is reported as over 20000 nM.
`N#C[C@@H]1C[C@@H]2C(=O)NC[C@@H]2CCCC[C@H](NC(=O)C2(C(F)(F)F)CC2)C(=O)N2C[C@@H]3CCC[C@@H]3[C@H]2C(=O)N1` [Example 150] gave an IC50 of under 100 nM.
Work on `CC1(C)[C@@H]2[C@H]3C(=O)N[C@H](C#N)C[C@@H]4C(=O)NC[C@@H]4CCCC[C@H](NC(=O)C4CC(F)(F)C4)C(=O)N3C[C@@H]21` [Example 62] yielded an IC50 of under 100 nM.
With `CC1(C)[C@@H]2[C@H]3C(=O)N[C@H](C#N)C[C@@H]4C(=O)NC[C@@H]4CCCC[C@H](NC(=O)c4ccc(Cl)c(Cl)c4)C(=O)N3C[C@@H]21` [Example 120] the IC50 was under 100 nM.
With `CC(C)(C)C(=O)N[C@H]1CCCC[C@H]2CCNC(=O)[C@H]2C[C@@H](C#N)NC(=O)[C@@H]2[C@@H]3[C@H](CN2C1=O)C3(C)C` [Example 69] the IC50 was under 100 nM.
Compound `CC(C)(C)OC(=O)N[C@@H]1CCCC[C@H]2CNC(=O)[C@H]2C[C@@H](C#N)NC(=O)[C@@H]2[C@@H]3[C@H](CN2C1=O)C3(C)C` [Example 128] has an IC50 of over 20000 nM.
In the case of `CC1(C(=O)N[C@H]2CCCC[C@H]3CNC(=O)[C@H]3C[C@@H](C#N)NC(=O)[C@@H]3[C@@H]4[C@H](CN3C2=O)C4(C)C)COC1` [Example 123], the IC50 is reported as under 100 nM.
`CC1(C)[C@@H]2[C@H]3C(=O)N[C@H](C#N)C[C@@H]4C(=O)NC[C@@H]4CCCC[C@H](NC(=O)c4cc(C(F)(F)F)on4)C(=O)N3C[C@@H]21` [Example 153] was tested, and the IC50 was under 100 nM.
`Cc1nc(C(=O)N[C@H]2CCCC[C@H]3CNC(=O)[C@H]3C[C@@H](C#N)NC(=O)[C@@H]3[C@@H]4[C@H](CN3C2=O)C4(C)C)cs1` [Example 113] showed an IC50 of 100 to 1000 nM.
`CC1(C)[C@@H]2[C@H]3C(=O)N[C@H](C#N)C[C@H]4C(=O)NC[C@@H]4CCCCC(=O)N3C[C@@H]21` [Example 25] was tested, and the IC50 was 100 to 1000 nM.
In the case of `N#C[C@@H]1C[C@@H]2C(=O)NC[C@@H]2CCCC[C@H](NC(=O)C2CC(F)(F)C2)C(=O)N2C[C@@H]3CCC[C@@H]3[C@H]2C(=O)N1` [Example 84], the IC50 is reported as under 100 nM.
In the case of `CC(C)(C)COC(=O)N[C@H]1CCCC[C@H]2CNC(=O)[C@H]2C[C@@H](C#N)NC(=O)[C@@H]2[C@@H]3[C@H](CN2C1=O)C3(C)C` [Example 106], the IC50 is reported as under 100 nM.
`CC1(C)[C@@H]2[C@H]3C(=O)N[C@H](C#N)C[C@@H]4C(=O)NC[C@@H]4CCCC[C@H](NC(=O)c4ccc(F)c(C(F)(F)F)c4)C(=O)N3C[C@@H]21` [Example 116] was tested, and the IC50 was under 100 nM.
